Measurements as given in patent publication US8202835B2, “Disease treatment via antimicrobial peptides or their inhibitors” (priority 2005, dated 2012).
“Also recorded” adds a separate entry of the source. No end group written: not given here.

B1: Alpha-Defensin 5: antimicrobial peptide reported in the DSS colitis model (peptide, UniProt Q01523 20-94, looked up)
Defensin alpha 5: ESLQERADEATTQKQSGEDNQDLAISFAGNGLSALRTSGSQARATCYCRTGRCATRESLSGVCEISGRLYRLCCR
modifications: Defensin-5
notes: antimicrobial peptide reported in the DSS colitis model

Experiments:
BALB/C mice = assay: DSS induced acute colitis model of IBD, disease activity index (DAI); type: in vivo, mouse; conditions: DSS treated control group average DAI 3; score 0 to 4
Method: BALB/C mice were induced with acute colitis by feeding dextran sulfate sodium (DSS) in drinking water for one week and synthetic cathelicidin was administered intrarectally daily during colitis induction.
Mice were induced with acute colitis by being given 3% DSS (molecular weight, 36-50 kDa) according to the method described by Liu et al. (Carcinogenesis 24:1407-1413, 2003). The 3% DSS was given in their drinking water liar 7 days (from Day 0 to Day 7). Normal control mice received tap water throughout the experiment.
Intrarectal administration of AMPs Cathelicidin mCRAMP (5 mg/Kg/day), beta-Defensin 1 (1 mg/Kg/day), beta-Defensin 3 (1 mg/Kg/day), Elafin and SLPI, CCL20 (1 mg/Kg/day), lysozyme (3 mg/Kg/day)), as well as bactericidal/permeability increasing protein (1 mg/Kg/day). The mice were divided into two groups of 10, one receiving ordinary tap water and the disease group with DSS treatment. The peptides were intrarectally administrated once daily for 10 consecutive days beginning 3 dayd before DSS treatment. The PBS control mice received equal volumes of PBS (i.e., 100 ul) intrarectally.
In all tested animals, body weight, stool consistency, and presence of gross bleeding were recorded. Disease activity index (DAI) was calculated according to the method described by Cooper et al. (Lab Invest 69:238-249, 1993.). In brief, body weight loss, stool consistency, and bleeding were scored from 0 to 4, and DAI is the combined score divided by 3.
In addition, a parallel experiment using mCRAMP (0.8 mg/Kg) administered by injection into the peritoneum 3 times a week beginning at one week before DSS treatment. In this experiment, two groups of mice (10 in each) were compared were the control group received saline during DSS treatment while the treatment group received mCRAMP (0.8 mg/Kg) intraperitonculy 3 times a week.
AMPs were applied both individually or together in combination.

human psoriatic skin = assay: Human in-vivo psoriatic lesion treatment; conditions: blind trial; for skin psoriatic lesion, 5 days treatment: Cathelicidin 10 ug/ml applied to lesions in a human subject
Method: Human in-vivo psoriatic lesion treatment: Cathelicidin 10 ug/ml or human beta defensin-2 diluted in PBS containing 0.1% BSA, or buffer carrier was applied to lesions in a human subject in a blind trial.

BETATC beta cell line = assay: Thymidine incorporation cell proliferation assay; type: cell-based, mouse; conditions: LL-37 2 microgram/ml, 3.5 days, vs PBS control
Method: Murine beta cell line were treated for 3.5 days with LL-37 at 2 microgram/ml (red/dark bars) and compared to PBS control ([…]). Cell proliferation was estimated by measuring [3(H)]-thymidine incorporation and was expressed as percent of control untreated cells. A representative experiment is shown.
Antimicrobial peptides (AMPs): The antimicrobial peptides human cathelicidin LL-37: […] (SEQ ID NO: 14) was obtained from AnaSpec, USA (Catalogue numbers: 61302). Cathelicidin at 2 ug/ml was added to the plate and compared with control.
Thymidine incorporation cell proliferation assay: Cell proliferation was evaluated by measuring [3(H)]-thymidine incorporation into DNA. Cells were pulsed with [3(H)]-thymidine (1 microcurie/mL, ICN, Irvine, Calif.) for 1 hour, at 37 degrees centigrade. After incubation, cells were washed 3 times with PBS, incubated for 15 minutes at room temperature in 5% trichloroacetic acid and solubilized in 1% triton X-100. The radioactivity incorporated into the cells was counted in the [3(H)]-window of a Tricarb liquid scintillation counter. Mean values were determined from measurements of triplicate samples under each experimental condition for each experiment. Thymidine incorporation was determined as number of disintegrations per minute (DPM) per mg of protein.

[1] = Infection and immunity, November 1999, p. 6084-6089; cited from earlier work

Molecule | average DAI (disease activity index) (BALB/C mice) | skin psoriatic lesion, 5 days treatment (human psoriatic skin) | other results
Alpha-Defensin 6: antimicrobial peptide reported in the DSS colitis model (AFTCHCRRSCYSTEYSYGTCTVMGINHRFCCL; ends and bridges not checked; cysteine pairing not given here; UniProt Q01524 69-100, looked up) | 1.8 |  | 
LLGDFFRKSKEKIGKEFKRIVQRIKDFLRNLVPRTES [LL-37] |  | slight improvement | cell proliferation ([3(H)]-thymidine incorporation) (BETATC beta cell line): significant BETATC beta cell line proliferation; also recorded: slight increase in cell proliferation; half-life in blood of humans [1]: approximately 3.4 days
SKEKIGKEFKRIVQRIKDFLRNLVPRTES (listed as Homo sapiens) [SK29, fragment cathelicidin SK29] |  | slight improvement | 
beta-Defensin 3: antimicrobial peptide tested in the DSS colitis model (GIINTLQKYYCRVRGGRCAVLSCLPKEEQIGKCSTRGRKCCRRKK; ends and bridges not checked; cysteine pairing not given here; UniProt P81534 23-67, looked up) | 1.8 |  | 
human beta defensin-2: Human Beta-Defensin-2 peptide purchased from Sigma-Aldrich (GIGDPVTCLKSGAICHPVFCPRRYKQIGTCGLPGTKCCKKP; ends and bridges not checked; cysteine pairing not given here; UniProt O15263 24-64, looked up) [reference compound] | 1.8 |  | skin psoriatic lesion, seven week course of treatment (human psoriatic skin; applied to lesions in a human subject, FIG. 20): worsening of skin psoriatic legion
B1 | 1.8 |  | 
